This note sets out measurements from ChEMBL document CHEMBL1133559, “4-Aryl-2,4-dioxobutanoic acid inhibitors of HIV-1 integrase and viral replication in cells” (J Med Chem, 2000).

Several values for one entry are separate records, joined by “and”; a condition that tells them apart may be missing. Equal entries are not always repeated. Where only a bound is given, the exact number is not on record here.

Test [1] deals with Human immunodeficiency virus 1. The test is described as follows: In vitro inhibition of (HIV-1 IIIB) replication. Conditions: for IC95: Human immunodeficiency virus 1, read-out: CIC95. It is filed as functional.
The target in test [2] is T1, Human immunodeficiency virus type 1 integrase (Human immunodeficiency virus 1, UniProt Q7ZJM1).
Description: Inhibition of recombinant HIV-1 Integrase in strand transfer enzyme assay.
Test [3] has as its target T1, Human immunodeficiency virus type 1 integrase. Put plainly: Inhibitory activity was determined against recombinant HIV-1 Integrase (0.1 uM) in strand transfer enzyme assay.

T1 sequence (Q7ZJM1 whole entry): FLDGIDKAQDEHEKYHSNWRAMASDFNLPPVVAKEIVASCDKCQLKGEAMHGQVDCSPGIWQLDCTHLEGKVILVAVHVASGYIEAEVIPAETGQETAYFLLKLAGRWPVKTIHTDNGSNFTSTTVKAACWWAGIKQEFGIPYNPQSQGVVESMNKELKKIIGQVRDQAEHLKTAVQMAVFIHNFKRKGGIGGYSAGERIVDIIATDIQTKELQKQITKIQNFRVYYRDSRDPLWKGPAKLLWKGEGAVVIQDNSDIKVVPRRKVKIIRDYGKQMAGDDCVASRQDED

As a reminder, the IC50 is the midpoint of a concentration-inhibition curve. Regarding `O=C(O)C(=O)CC(=O)c1csc(Cc2ccccc2)c1`, the IC95 in test [1] came to 2500 nM. In test [2], the half-maximal inhibitory concentration (IC50) was 160 nM and 100 nM.

Turning to `O=C(O)C(=O)CC(=O)c1cccc(Cc2ccc(Cl)cc2)c1`, in test [1], the IC95 turned out to be 25000 nM. Besides, the 50% inhibitory concentration (IC50) in test [2] is 1000 nM and 500 nM.

For `O=C(O)C(=O)CC(=O)c1cccc(Cc2cccc(F)c2)c1`, in test [1], the IC95 turned out to be 2080 nM. In addition, the IC50 in test [2] came to 250 nM.

Turning to `O=C(O)C(=O)CC(=O)c1cccc(Cc2ccccc2F)c1`, the IC95 in test [1] amounted to 520 nM. In addition, in test [2], the IC50 is less than 100 nM.

For the molecule `O=C(O)C(=O)CC(=O)c1cccc(Cc2cccc(Cl)c2)c1`, in test [1], the IC95 worked out at 940 nM. Further, the half-maximal inhibitory concentration (IC50) in test [2] is less than 100 nM.

With `COc1ccc(Cc2ccccc2)cc1C(=O)CC(=O)C(=O)O`, in test [1], the IC95 is 620 nM. Moreover, in test [2], the IC50 was less than 100 nM.

In the case of `O=C(O)C(=O)CC(=O)c1ccn(Cc2ccccc2)c1`, the IC95 in test [1] stood at 3000 nM. The half-inhibitory concentration (IC50) in test [2] is 500 nM and 600 nM.

Take `COc1ccc(C(=O)CC(=O)C(=O)O)cc1Cc1ccccc1`: in test [1], the IC95 came to 1830 nM. In test [2], this molecule gave an IC50 of 150 nM.

For `O=C(O)C(=O)CC(=O)c1cccc(Cc2ccc(F)cc2)c1`, in test [1], the IC95 came to 690 nM. In test [2], this molecule showed an IC50 of less than 100 nM.

Consider `O=C(O)C(=O)CC(=O)c1ccccc1Cc1ccccc1`, for which, in test [1], the IC95 is more than 50000 nM. Besides, in test [2], the midpoint of inhibition, the IC50, lay at 5670 nM.

On to `COc1cc(Cc2ccccc2)cc(C(=O)CC(=O)C(=O)O)c1`, for which the IC95 in test [1] stood at 2080 nM. This molecule also returned an IC50 in test [2] of 140 nM.

`CCOc1ccc(Cc2ccccc2)cc1C(=O)CC(=O)C(=O)O`: in test [1], the CIC95 turned out to be 0.25 µM and the IC95 came to 150 nM. Moreover, the IC50 in test [2] is less than 100 nM.

Turning to `O=C(O)C(=O)CC(=O)c1cccc(Cc2ccccc2)c1`, the IC95 in test [1] is 1110 nM. The molecule further yielded a concentration for half-maximal inhibition (IC50) in test [2] of less than 100 nM.

For `O=C(O)C(=O)CC(=O)c1cccn1Cc1ccccc1`, the IC95 in test [1] amounted to 41600 nM. The molecule also displayed a 50% inhibitory concentration (IC50) in test [2] of 220 nM.

As for `CC(C)Oc1ccc(Cc2ccccc2)cc1C(=O)CC(=O)C(=O)O`, the IC95 in test [1] worked out at 100 nM. The 50% inhibitory concentration (IC50) in test [3] is less than 100 nM.

Consider `O=C(O)C(=O)CC(=O)c1cccc(Cc2ccccc2Cl)c1`, for which the IC95 in test [1] was 620 nM. The molecule further gave a half-inhibitory concentration (IC50) in test [2] of less than 100 nM.

As to `O=C(O)C(=O)CC(=O)c1ccc(Cc2ccccc2)s1`, the IC95 in test [1] was 12500 nM. Besides, in test [2], the half-inhibitory concentration (IC50) amounted to 500 nM.

For the molecule `O=C(O)C(=O)CC(=O)c1ccsc1Cc1ccccc1`, the IC95 in test [1] turned out to be 25000 nM. For the same molecule, in test [2], the IC50 is 180 nM.

Regarding `O=C(O)C(=O)CC(=O)c1cccn1Cc1ccc(F)cc1`, in test [1], the IC95 is 9600 nM.

Regarding `CC(C)(C)NC(=O)[C@@H]1CN(Cc2cccnc2)CCN1C[C@@H](O)C[C@@H](Cc1ccccc1)C(=O)N[C@H]1c2ccccc2C[C@H]1O` [INDINAVIR], in test [1], the IC95 was determined as 55 nM.
